Experiments:
healthy dog hearts = settings: administration immediately at reperfusion and continuing for at least four days; cited from earlier work
[1] = test system: patients undergoing OPCABG; assay: metabolically directed protocol: oral D-ribose prior to and following OPCABG; type: in vivo, human
Source text: (§1) Following the initial study described in Example 2, 366 consecutive patients, 41-88 years of age, undergoing OPCABG were enrolled. Of these, 89 had recent MIs and seven presented with MIs within one to seven days. Prospectively collected data included comorbidities, hemodynamics and outcomes. All patients were managed with a protocol emphasizing normoglycemia, normothermia and reduced inflammation. Group 1 (n=308) received multiple oral doses (5 gram/dose) of D-ribose prior to and following surgery. […] Otherwise, both groups had similar preoperative characteristics including ejection fraction (EJ) and Society for Thoracic Surgery (STS) Risk Indices with nonsignificant trends in the increased comorbidities in Group 1.

[2] = test system: rats subjected to an anterior MI; settings: intravenous ribose for 14 days previous to the inducement of MI; cited from earlier work
[3] = test system: acute, first response MI patients; assay: first response acute MI patients given D-ribose (subset of Group 1); type: in vivo, human; settings: seven first response MI patients
Source text: as §1
A. While these studies are promising, neither replicates the clinical situation of a patient presenting at first response with an acute myocardial infarction, where time is of the essence. In most cases, MI is a spontaneous event, but an MI can be induced during a procedure such as angiogram, angioplasty or dobutamine echocardiography. Such a patient is generally in the process of compromising cardiac function.
It should also be mentioned that these seven patients are included in Group 1 of Table I. With preloading with D-ribose, they were able to maintain and slightly increase their CI in comparison to the total group.

[4] = test system: myocardial dysfunction resulting from globally induced ischemia during cardiac surgical procedures; type: in vivo, human
Method: B. A preconditioning study was performed in human patients scheduled for surgery.
Inclusion criteria were: • Males or females aged 18 or older • Patients with documented coronary artery disease undergoing CABG with an ejection fraction (EF) of 35% based on echocardiography, radionuclide imaging or cardiac catheterization done within eight weeks of surgery. (If more than one method was used to evaluate EF during this period, the mean values of the various methods were 35%). • Patients undergoing single or double valve replacement with documented coronary artery disease also undergoing CABG; or patients undergoing single or double valve replacement without CABG • Serum creatinine of <2.35 mg/dl • For females of childbearing potential, a negative pregnancy test. • Signed consent forms.
The test article, placebo or ribose, was dispensed according to computer-generated randomization schedule either for patients undergoing CABG only or for patients undergoing heart valve surgery +/−CABG. All patients received a high dose narcotic anaesthesia technique consisting of either fentanyl (50-100 μg/kg) or sufentanil (10-20 μg/kg) and midazolam. No restriction was placed on the type of anaesthetic agents administered. The anaesthesiologists and surgeons responsible for the care of the patents made the clinical decision to use inotropic support, intra-aortic balloon pump support or post bypass circulatory support based on their knowledge of patients requirements and accepted medical practice and without regard to test article status. The test article infusion was started intravenously at the time of aortic cross clamping and continued until the pulmonary artery catheters introducer was removed or for five days (120) hours whichever occurred first. The surgeons responsible for the clinical care of the patients removed the pulmonary artery catheter cordis without regard to test article stats.
Hemodynamic measurements consisting of heart rate, blood pressure, pulmonary artery pressures, pulmonary capillary wedge pressure (PCWP), central venous pressure (CVP) and thermodilution cardiac index (CI) were obtained at the following time intervals: immediately prior to induction of anaesthesia, post induction of anaesthesia prior to sternotomy, post sternotomy prior to initiation of cardiopulmonary bypass, upon successful termination of cardiopulmonary bypass prior to sternal closure and prior to reversal of heparinization with protamine, post closure of the sternum, upon arrival in the intensive care unit and at one or two hour intervals until the pulmonary artery a catheter was removed.
Transesophageal echocardiography data (H.P. Sonos OR, 5.0 MHz, Andover, Mass.) was collected at the following time intervals: post induction of anaesthesia prior to sternotomy, and immediately post closure of the sternum. Transthoracic echocardiography (H.P. Sonos 1500. 2.5 MHz, Andover, Mass.) measurements were made on day three and day seven of the study period. For both the transesophageal and transthoracic echocardiograms, the following long axis and short axis mid-papillary area changes were measured in triplicate by acoustic quantification techniques: end diastolic area (EDA), end systolic area (ESA), fractional area change (FAC), +dA/dt and −dA/dt. All area change data were also analyzed by manual off line analysis. EF was also determined off line using a long axis view, In addition, regional wall motion was quantified as the following: normal=1, hypokinetic=2, akinetic=3 and dyskinetic=4. The wall motion index score (WMIS) and percentage normal myocardium were calculated by reading a maximum of sixteen segments. Echocardiography data for evaluating wall motion and area change was analyzed only if greater than 75% of the endocardial border could be visualized through a complete cardiac cycle. Off line analysis was performed on an Image View echocardiography workstation (Nova Microsonics, Allendale, N.J.). […]

[5] = Group 1, oral D-ribose, p<0.001 versus Group 2

For `O=C[C@H](O)[C@H](O)[C@H](O)CO` [D-ribose], the ATP recovery (healthy dog hearts) is listed as “enhanced ATP recovery”, the postoperative death ([1]; Group 1) is listed as “one” and the “time in intensive care” value ([1]; Group 1 (n=308), multiple oral doses 5 gram/dose prior to and following surgery, trend not significant) is listed as 72 h. For the same compound, the “requirement for IABP” value ([1]; Group 1 (n=308), oral D-ribose, trend not significant) was 12%, the “increase in CI after surgery” value [1, 5] was 0.8 and the “patients demonstrating an increase in CI after OPCABG” value [1, 5] was 86%. The “Postop CI” value ([1]; Group 1, postoperative cardiac index) was 3.0 ± 0.7, the “Preop CI” value ([1]; Group 1, preoperative cardiac index) was 2.3 ± 0.5 and the “Change (Preop CI to Postop CI)” value ([1]; Group 1 of Table I) was “+0.07”. The “parameters of heart function (LV diastolic diameter, LV systolic diameter, ejection fraction, shortening fraction)” value [2] was “Significant improvement”, the “Change (Preop CI to Postop CI)” value [3] was “+0.41” and the “Postop CI” value [3] was 2.60 ± 0.4. The “Preop CI” value [3] was 2.19 ± 0.7, the “patients who developed hypoglycemia (fingerstick glucose <70 mg/dl)” value ([4]; both, human, in vivo) was 28% and the lowest glucose level ([4]; human, in vivo) was 31 mg/dL. For the same compound, the “mean glucose level in those patients developing hypoglycemia” value ([4]; human, in vivo) was 58 mg/dL, the “neurological or other clinical symptoms associated with hypoglycemia” value ([4]; human, in vivo) was “None” and the “subjects in whom study drug infusion was stopped because of hypoglycemia” value ([4]; human, in vivo) was “two”. For the same compound, the “mean Day 7 EF” value ([4]; ribose treated patients, Day 7, echocardiography, IV infusion 100 mg/kg/hr) was 41% and the “mean baseline EF” value ([4]; ribose treated patients, baseline, echocardiography, IV infusion 100 mg/kg/hr) was 44%.

Reference: patent US20170326165A1, “USE OF RIBOSE IN FIRST RESPONSE TO ACUTE MYOCARDIAL INFARCTION” (BIOENERGY, INC., priority 2008, published 2017)
